Assay results reported in ChEMBL document CHEMBL3763064, “Discovery of silyl proline containing HCV NS5A inhibitors with pan-genotype activity: SAR development” (Bioorg Med Chem Lett, 2016).

Legend:
Assay type in all cases: functional, organism-based, Hepacivirus hominis
[1] = tested on: Hepatitis C virus; assay: Antiviral activity against HCV genotype 1a by replicon assay; details: subtype 1a
[2] = tested on: Hepatitis C virus; assay: Antiviral activity against HCV genotype 2a by replicon assay
[3] = tested on: Hepatitis C virus; assay: Antiviral activity against HCV genotype 1a expressing NS5A Y93H mutant by replicon assay; details: subtype 1a
[4] = tested on: Hepatitis C virus; assay: Antiviral activity against HCV genotype 3a by replicon assay
[5] = tested on: Hepatitis C virus; assay: Antiviral activity against HCV genotype 1b by replicon assay

| Compound | EC50 [1] | EC50 [2] | EC50 [3] | EC50 [4] | EC50 [5] |
| --- | --- | --- | --- | --- | --- |
| COC(=O)N[C@H](C(=O)N1C[Si](C)(C)C[C@H]1c1ncc(-c2ccc(-c3ccc(-c4cnc([C@@H]5C[Si](C)(C)CN5C(=O)[C@@H](NC(=O)OC)C(C)C)[nH]4)cc3)cc2)[nH]1)C(C)C | 0.2 nM | 0.25 nM | > 1000 nM | 4.1 nM | 0.01 nM |
| COC(=O)N[C@H](C(=O)N1C[Si]2(CCCC2)C[C@H]1c1ncc(-c2ccc(-c3ccc4c(ccc5nc([C@@H]6CCCN6C(=O)[C@@H](NC(=O)OC)C(C)C)[nH]c54)c3)cc2)[nH]1)C(C)C | 0.06 nM | 0.01 nM | 350 nM | 0.2 nM |  |
| COC(=O)N[C@H](C(=O)N1C[C@H](O)C[C@H]1c1ncc(-c2ccc(-c3ccc4c(ccc5nc([C@@H]6C[Si](C)(C)CN6C(=O)[C@@H](NC(=O)OC)C(C)C)[nH]c54)c3)cc2)[nH]1)C(C)C | 0.06 nM |  | 44 nM |  | 0.005 nM |
| COC(=O)N[C@H](C(=O)N1C[Si](C)(C)C[C@H]1c1ncc(-c2ccc(-c3ccc4nc([C@@H]5CCCN5C(=O)[C@@H](NC(=O)OC)C(C)C)[nH]c4c3)cc2)[nH]1)C(C)C | > 1 nM |  | 9920 nM |  | 0.004 nM |
| COC(=O)N[C@H](C(=O)N1C[Si](C)(C)C[C@H]1c1nc2ccc3cc(-c4ccc(-c5cnc([C@@H]6[C@H]7CC[C@H](C7)N6C(=O)[C@@H](NC(=O)OC)C(C)C)[nH]5)cc4)ccc3c2[nH]1)C(C)C | 0.09 nM |  | 131 nM |  | 0.01 nM |
| COC(=O)N[C@H](C(=O)N1C[Si](C)(C)C[C@H]1c1ncc(-c2ccc(-c3ccc4c(ccc5nc([C@@H]6CCCN6C(=O)[C@@H](NC(=O)OC)C(C)C)[nH]c54)c3)s2)[nH]1)C(C)C | 0.14 nM |  | 921 nM |  | 0.004 nM |
| COC(=O)N[C@H](C(=O)N1C[Si](C)(C)C[C@H]1c1ncc(-c2ccc(-c3ccc4c(ccc5nc([C@@H]6C[C@@H](F)CN6C(=O)[C@@H](NC(=O)OC)C(C)C)[nH]c54)c3)cc2)[nH]1)C(C)C | 0.02 nM |  | 10 nM |  | 0.003 nM |
| COC(=O)N[C@H](C(=O)N1CCC[C@H]1c1ncc(-c2ccc(-c3ccc(-c4cnc([C@@H]5CCCN5C(=O)[C@@H](NC(=O)OC)C(C)C)[nH]4)cc3)cc2)[nH]1)C(C)C |  | 0.04 nM | 198 nM | 0.7 nM | 0.01 nM |
| COC(=O)N[C@H](C(=O)N1CC(C)(C)C[C@H]1c1ncc(-c2ccc(-c3ccc4c(ccc5nc([C@@H]6C[Si](C)(C)CN6C(=O)[C@@H](NC(=O)OC)C(C)C)[nH]c54)c3)cc2)[nH]1)C(C)C | 0.015 nM |  | 90 nM |  | 0.003 nM |
| COC(=O)N[C@H](C(=O)N1C[Si](C)(C)C[C@H]1c1nc2ccc3cc(-c4ccc(-c5cnc([C@@H]6[C@@H]7C[C@@H](C(F)C7F)N6C(=O)[C@@H](NC(=O)OC)C(C)C)[nH]5)cc4)ccc3c2[nH]1)C(C)C (stereo partly specified) | 0.04 nM |  | 204 nM |  | 0.002 nM |
| COC(=O)N[C@H](C(=O)N1C[Si](C)(C)C[C@H]1c1ncc(-c2ccc(-c3cc4c(ccc5nc([C@@H]6CCCN6C(=O)[C@@H](NC(=O)OC)C(C)C)[nH]c54)s3)cc2)[nH]1)C(C)C | > 1 nM |  | 2330 nM |  | 0.006 nM |
| COC(=O)N[C@H](C(=O)N1CCS(=O)(=O)C[C@H]1c1ncc(-c2ccc(-c3ccc4c(ccc5nc([C@@H]6C[Si](C)(C)CN6C(=O)[C@@H](NC(=O)OC)C(C)C)[nH]c54)c3)cc2)[nH]1)C(C)C | 0.2 nM |  | 380 nM |  | 0.01 nM |
| COC(=O)N[C@H](C(=O)N1C[Si](C)(C)C[C@H]1c1ncc(-c2ccc(-c3ccc4c(ccc5nc([C@@H]6CCCN6C(=O)[C@@H](NC(=O)OC)C(C)C)[nH]c54)c3)nc2)[nH]1)C(C)C | 0.04 nM |  | 185 nM |  | 0.014 nM |
| COC(=O)N[C@H](C(=O)N1C[C@H](F)C[C@H]1c1ncc(-c2ccc(-c3ccc4c(ccc5nc([C@@H]6C[Si](C)(C)CN6C(=O)[C@@H](NC(=O)OC)C(C)C)[nH]c54)c3)cc2)[nH]1)C(C)C | 0.07 nM |  | 27 nM |  | 0.006 nM |
